Measured values: the supplement of paper PMC10307832

Tests used:
Assay in all cases: relative viability (nuclei count vs DMSO), 5 days (fraction); higher = more cells survive
[1] = compound: C1=CC2=C(C=C(C(=C2N=C1)O)N=NC3=CC4=C(C=C3)C=C(C=C4)S(=O)(=O)O)S(=O)(=O)O + COc1cc2c(Oc3ccc(NC(=O)C4(C(=O)Nc5ccc(F)cc5)CC4)cc3F)ccnc2cc1OCCCN1CCOCC1 [Foretinib] (partner 0.25 µM)
Summary of the method: (§1)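 Nuclei were stained with Hoechst during a one-step fixation (final 0.05% Triton X-100, 1% formaldehyde, 1 ug/ml Hoechst) carried out 5 days after dosing, then counted on 4× images. The cells, lung cancer lines in 1536-well plates, had been dosed by pin tool the day after seeding with one drug alone or a fixed anchor-drug dose plus five library-drug doses (not always all listed) in √10 steps. Relative viability is the nuclei count in treated wells divided by that in vehicle wells, and each value is the median of duplicate plates.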

AT-7519 + OSI-027 = compound: O=C(NC1CCNCC1)c1n[nH]cc1NC(=O)c1c(Cl)cccc1Cl [AT-7519] + COc1cccc2cc(-c3nc([C@H]4CC[C@H](C(=O)O)CC4)n4ncnc(N)c34)[nH]c12 [OSI-027] (partner 0.5 µM)
Summary of the method: as §1

[2] = compound: C1=CC2=C(C=C(C(=C2N=C1)O)N=NC3=CC4=C(C=C3)C=C(C=C4)S(=O)(=O)O)S(=O)(=O)O + CS(=O)(=O)CCNCc1ccc(-c2ccc3ncnc(Nc4ccc(OCc5cccc(F)c5)c(Cl)c4)c3c2)o1 [Lapatinib] (partner 2 µM)
Summary of the method: as §1

AT-7519 + AZD7762 = compound: O=C(NC1CCNCC1)c1n[nH]cc1NC(=O)c1c(Cl)cccc1Cl [AT-7519] + NC(=O)Nc1cc(-c2cccc(F)c2)sc1C(=O)N[C@H]1CCCNC1 [AZD7762] (partner 0.2 µM)
Summary of the method: as §1

| Cell Line | relative viability ([1]; first compound 0.08 µM) | relative viability ([1]; first compound 0.253 µM) | relative viability ([1]; first compound 0.8 µM) | relative viability ([1]; first compound 2.53 µM) | relative viability ([1]; first compound 8 µM) | relative viability (AT-7519 + OSI-027; first compound 0.01 µM) | relative viability (AT-7519 + OSI-027; first compound 0.03162 µM) | relative viability (AT-7519 + OSI-027; first compound 0.3162 µM) | relative viability (AT-7519 + OSI-027; first compound 1 µM) | relative viability ([2]; first compound 0.253 µM) | relative viability ([2]; first compound 2.53 µM) | relative viability ([2]; first compound 8 µM) | relative viability (AT-7519 + AZD7762; first compound 0.01 µM) | relative viability (AT-7519 + AZD7762; first compound 0.03162 µM) | relative viability (AT-7519 + AZD7762; first compound 0.3162 µM) | relative viability (AT-7519 + AZD7762; first compound 1 µM) | relative viability ([2]; first compound 0.08 µM) | relative viability ([2]; first compound 0.8 µM) |
| --- | --- | --- | --- | --- | --- | --- | --- | --- | --- | --- | --- | --- | --- | --- | --- | --- | --- | --- |
| LCLC-97TM1 | 0.938 | 0.932 | 0.865 | 0.93 | 0.986 | 0.566 | 0.616 | 0.422 | 0.21 | 0.665 | 0.835 | 1.04 | 0.24 | 0.294 | 0.335 | 0.394 | – | – |
| LK-2 | 1.33 | 1.3 | 0.899 | 0.911 | 1.37 | 0.182 | 0.217 | 0.19 | 0.189 | 0.883 | 0.939 | 0.718 | 0.456 | 0.329 | 0.347 | 0.19 | 0.946 | 0.839 |
| LOU-NH91 | 0.974 | 0.946 | 0.93 | 0.917 | 1.01 | 0.738 | 0.742 | 0.72 | 0.711 | 0.79 | 0.781 | 0.781 | 0.755 | 0.79 | 0.643 | 0.713 | 0.868 | 0.755 |
| LU99A | 0.958 | 0.812 | 0.684 | 0.913 | 0.732 | 0.315 | 0.248 | 0.223 | 0.299 | 0.974 | 0.972 | 1.14 | 0.329 | 0.29 | 0.538 | 0.342 | 0.934 | 0.949 |
| LXF-289 | 1.09 | 0.987 | 0.998 | 0.974 | 0.914 | 0.758 | 0.666 | 0.706 | 0.737 | 0.889 | 0.955 | 0.903 | 1.1 | 1.14 | 1.1 | 1.23 | 0.934 | 0.897 |
| NCI-H23 | 0.544 | 0.923 | 0.925 | 1.04 | 0.84 | 0.475 | 0.521 | 0.664 | 0.396 | 1.02 | 0.984 | 1.18 | 0.258 | 0.262 | 0.242 | 0.309 | 1.31 | 1.03 |
| NCI-H322M | 1.1 | 0.989 | 0.919 | 0.89 | 0.95 | 0.539 | 0.521 | 0.422 | 0.428 | 0.639 | 0.613 | 0.716 | 0.534 | 0.533 | 0.578 | 0.639 | 0.627 | 0.528 |
| NCI-H358 | 0.778 | 0.61 | 0.635 | 0.651 | 0.884 | 0.83 | 0.676 | 0.527 | 0.194 | 0.393 | 0.486 | 0.483 | 0.423 | 0.558 | 0.521 | 0.37 | 0.436 | 0.469 |
| NCI-H460 | 1.12 | 1.01 | 1.01 | 1.01 | 0.928 | 0.906 | 0.686 | 0.288 | 0.0567 | 1.01 | 1.13 | 0.965 | 0.665 | 0.653 | 1.02 | 0.693 | 1.53 | 1.05 |
| NCI-H596 | 0.902 | 0.904 | 0.82 | 1.01 | 0.737 | 0.723 | 0.628 | 0.644 | 0.754 | 1.02 | 1.01 | 1.01 | 1.22 | 1.06 | 0.982 | 0.938 | 1.11 | 0.977 |
| NCI-H647 | 1.33 | 1.09 | 1.14 | 1.28 | 1.3 | 0.538 | 0.675 | 0.676 | 0.471 | 0.828 | 0.998 | 0.904 | 0.353 | 0.481 | 0.552 | 0.361 | 1.64 | 0.974 |
| NCI-H650 | 1.13 | 1.07 | 1.01 | 1.02 | 1.06 | 0.529 | 0.496 | 0.498 | 0.711 | 0.786 | 0.86 | 0.525 | 1.07 | 0.953 | 0.887 | 1.29 | 0.91 | 0.838 |
| NCI-H727 | 0.939 | 0.759 | 0.835 | 1.03 | 0.774 | 0.68 | 0.632 | 0.517 | 0.408 | 0.873 | 0.978 | 0.701 | 0.571 | 0.494 | 0.604 | 0.414 | 1.09 | 0.768 |
| NCI-H838 | 1.13 | 1.06 | 1.04 | 1.03 | 1.04 | 0.345 | 0.39 | 0.276 | 0.127 | 0.926 | 0.926 | 1.06 | 0.925 | 0.949 | 0.936 | 0.861 | 1.29 | 0.934 |
| NCI-H1355 | 1.1 | 0.988 | 0.92 | 1.03 | 0.996 | 0.407 | 0.471 | 0.374 | 0.374 | 0.999 | 1.05 | 1.08 | 0.71 | 0.703 | 0.902 | 0.907 | 1.02 | 0.905 |
| NCI-H1395 | 0.965 | 0.988 | 0.956 | 1.03 | 1 | 0.659 | 0.618 | 0.525 | 0.62 | 1.18 | 1.01 | 0.966 | 0.359 | 0.391 | 0.425 | 0.348 | 1.14 | 1.19 |
| NCI-H1437 | 1.33 | 1.23 | 1.32 | 1.27 | 0.66 | 0.755 | 0.938 | 0.824 | 0.645 | 0.791 | 0.811 | 0.748 | 0.989 | 1.09 | 1.07 | 0.982 | 0.896 | 0.781 |
| NCI-H1651 | 0.923 | 0.727 | 0.864 | 0.857 | 0.623 | 0.764 | 0.734 | 0.598 | 0.59 | 0.865 | 0.911 | 0.964 | 0.531 | 0.49 | 0.536 | 0.561 | 0.764 | 0.781 |
